Like-named read-outs stand apart in the source and are kept apart here.
What was measured:
[1] = test system: Blumeria graminis; experiment: In vivo fungicidal activity, Wheat powdery mildew (WPM); note: ranges in brackets are in %
[2] = test system: Rhizoctonia solani; experiment: In vitro fungicidal activity, Rice sheath blight (RHIZSO); type: cell-based; design: key: 0: None; 3: slight; 5: moderate; 7: severe; 9: complete; details: 3-7 days of incubation
Experimental: (§1) Test compounds are dissolved in acetone to give concentrations of 25, 10 and 1 ppm and are added to individual cell Walls (24-cell-well plates, Corning), which were previously filled with a suspension of ground plates, Corning), which were previously filled with a suspension of ground fungal mycelium in a chemically defined growth medium. After 3-7 days of incubation, inhibition of […] growth is recorded using the following scale: The data obtained are shown in Table II. [table]

[3] = test system: Pyricularia grisea f. sp. oryzae; type: in vivo; details: Rice Blast
[4] = test system: Plasmopara viticola; experiment: In vivo fungicidal activity, Grape downy mildew (GDM); note: ranges in brackets are in %
[5] = test system: Alternara solani; experiment: In vivo fungicidal activity, Tomato early blight (TEB); note: ranges in brackets are in %
[6] = test system: Pythium ultimum; experiment: In vitro fungicidal activity, Fruit rot (PYTHUL); type: cell-based; design: key: 0: None; 3: slight; 5: moderate; 7: severe; 9: complete; details: 3-7 days of incubation
Experimental: as §1

[7] = test system: Pseudocercosporella herpotrichoides; experiment: In vitro fungicidal activity, Cereal eye spot (PSDCHE); type: cell-based; design: key: 0: None; 3: slight; 5: moderate; 7: severe; 9: complete; details: 3-7 days of incubation
Experimental: as §1

[8] = test system: Botrytis cinera; experiment: In vivo fungicidal activity, Pepper Botrytis (PB); note: ranges in brackets are in %
[9] = test system: Venturia inaequalis; experiment: In vivo fungicidal activity, Apple Scab (AS); note: ranges in brackets are in %

| Structure (SMILES) | WPM disease control rating ([1]; 12.5 ppm spray) | WPM disease control rating ([1]; 50 ppm spray) | WPM disease control rating ([1]; 200 ppm spray) | RHIZSO inhibition of mycelial growth rating ([2]; 1 ppm) | RHIZSO inhibition of mycelial growth rating ([2]; 10 ppm) | RHIZSO inhibition of mycelial growth rating ([2]; 25 ppm) | RB disease control rating ([3]; 12.5 ppm spray) | RB disease control rating ([3]; 50 ppm spray) | RB disease control rating ([3]; 200 ppm spray) | GDM disease control rating ([4]; 50 ppm spray) | GDM disease control rating ([4]; 200 ppm spray) | TEB disease control rating ([5]; 12.5 ppm spray) | TEB disease control rating ([5]; 50 ppm spray) | TEB disease control rating ([5]; 200 ppm spray) | PYTHU inhibition of mycelial growth rating ([6]; 1 ppm) | PYTHU inhibition of mycelial growth rating ([6]; 10 ppm) | PYTHU inhibition of mycelial growth rating ([6]; 25 ppm) | PSDCH inhibition of mycelial growth rating ([7]; 1 ppm) | PSDCH inhibition of mycelial growth rating ([7]; 10 ppm) | PSDCH inhibition of mycelial growth rating ([7]; 25 ppm) | further results |
| --- | --- | --- | --- | --- | --- | --- | --- | --- | --- | --- | --- | --- | --- | --- | --- | --- | --- | --- | --- | --- | --- |
| CC(N=c1c(-c2ccc(F)cc2F)c(Cl)nc2n(C)cnn12)C(F)(F)F (centres unmarked) [Example 16] | 0 (0) | 0 (0) | 0 (0) | 5 | 7 | 7 | 0 (0) | 0 (0) | 0 (0) | 5 (60-74) | 7 (90-95) | 0 (0) | 0 (0) | 0 (0) | 0 | 5 | 7 | 0 | 0 | 0 | PB disease control rating ([8]; 12.5 ppm spray): 0 (0); PB disease control rating ([8]; 50 ppm spray): 0 (0); PB disease control rating ([8]; 200 ppm spray): 0 (0); AS disease control rating ([9]; 12.5 ppm spray): 0 (0); AS disease control rating ([9]; 50 ppm spray): 5 (60-74); AS disease control rating ([9]; 200 ppm spray): 6 (75-89) |
| CC(N=c1c(-c2ccc(F)cc2F)c(Cl)n(C)c2ncnn12)C(F)(F)F (centres unmarked) [Example 7] | 0 (0) | 4 (45-59) | 6 (75-89) | 5 | 5 | 5 | 0 (0) | 0 (0) | 4 (45-59) | 0 (0) | 8 (96-99) | 0 (0) | 0 (0) | 0 (0) | 0 | 0 | 0 | 0 | 1 | 0 | GDM disease control rating ([4]; 12.5 ppm spray): 0 (0); PB disease control rating ([8]; 12.5 ppm spray): 2 (15-29); PB disease control rating ([8]; 50 ppm spray): 0 (0); PB disease control rating ([8]; 200 ppm spray): 0 (0); AS disease control rating ([9]; 12.5 ppm spray): 0 (0); AS disease control rating ([9]; 50 ppm spray): 0 (0); AS disease control rating ([9]; 200 ppm spray): 6 (75-89) |
| CC(N=c1c(-c2ccccc2Cl)c(Cl)nc2n(C)cnn12)C(F)(F)F (centres unmarked) [Example 15] | 0 (0) | 0 (0) | 3 (30-44) | 0 | 0 | 3 | 0 (0) | 0 (0) | 0 (0) | 4 (45-59) | 6 (75-89) | 0 (0) | 0 (0) | 0 (0) | 0 | 0 | 0 | 0 | 0 | 0 | GDM disease control rating ([4]; 12.5 ppm spray): 2 (15-29); PB disease control rating ([8]; 12.5 ppm spray): 0 (0); PB disease control rating ([8]; 50 ppm spray): 0 (0); PB disease control rating ([8]; 200 ppm spray): 2 (15-29); AS disease control rating ([9]; 12.5 ppm spray): 0 (0); AS disease control rating ([9]; 50 ppm spray): 0 (0); AS disease control rating ([9]; 200 ppm spray): 0 (0) |
